Reference: patent US10722501B2 (BAYER AKTIENGESELLSCHAFT, priority 2016, dated 2020)

These compounds were tested against T1, recombinant full-length human prolyl endopeptidase (PREP) (Homo sapiens, UniProt P48147) (assay: Biochemical human prolyl endopeptidase (PREP) assay with fluorescently labelled substrate). Conditions: substrate Z-Gly-Pro-AMC 50 μM, 32° C., 60 min; some as mean values from multiple independent determinations.
T1 construct: To recombinant full-length human prolyl endopeptidase (PREP, R&D-Systems, 4308-SE); purchased R&D-Systems 4308-SE
T1 sequence (P48147 1-710): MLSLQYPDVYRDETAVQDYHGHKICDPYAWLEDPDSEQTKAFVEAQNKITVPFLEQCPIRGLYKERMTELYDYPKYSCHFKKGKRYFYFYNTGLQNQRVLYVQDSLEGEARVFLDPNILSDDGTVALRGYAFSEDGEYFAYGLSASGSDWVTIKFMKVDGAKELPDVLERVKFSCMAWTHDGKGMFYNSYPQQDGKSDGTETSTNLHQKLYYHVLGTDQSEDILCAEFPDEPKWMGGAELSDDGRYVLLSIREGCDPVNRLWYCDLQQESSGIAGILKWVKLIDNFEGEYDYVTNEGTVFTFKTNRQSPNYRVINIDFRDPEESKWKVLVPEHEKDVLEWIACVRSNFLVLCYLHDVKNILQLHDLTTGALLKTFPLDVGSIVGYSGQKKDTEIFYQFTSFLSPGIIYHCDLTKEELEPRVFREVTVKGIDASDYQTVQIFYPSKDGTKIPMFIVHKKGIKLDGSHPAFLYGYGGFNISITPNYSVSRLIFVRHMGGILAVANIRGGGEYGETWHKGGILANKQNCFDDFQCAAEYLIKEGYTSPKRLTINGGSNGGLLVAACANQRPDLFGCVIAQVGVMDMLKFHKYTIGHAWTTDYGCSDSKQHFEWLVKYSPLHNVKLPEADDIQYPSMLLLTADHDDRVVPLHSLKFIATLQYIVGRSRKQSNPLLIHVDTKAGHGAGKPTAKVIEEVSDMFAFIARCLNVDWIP
In short: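 0.4 nM (final, example) recombinant PREP in pH 7.5 Tris buffer with EDTA, GSH, BSA and Brij-35; compounds at 1 nM to 30 μM. Reaction started with 50 μM Z-Gly-Pro-AMC and followed by fluorescence (ex 360/em 465 nm) at 32° C for 60 min. IC50 interpolated from percent activity based on initial slopes.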
Work on `Cc1ccc(Cn2nc3n(c2=O)[C@H](C(=O)N2CC4(C2)CC4(F)F)CCC3)cc1` [Example 191, (5S)-5-[(1,1-Difluoro-5-azaspiro[2.3]hex-5-yl)carbonyl]-2-(4-methylbenzyl)-5,6,7,8-tetrahydro[1,2,4]triazolo[4,3-a]pyridin-3(2H)-one] yielded an IC50 of 2.8 nM.
`O=C(C1CC(C(F)(F)F)Cc2nn(Cc3ncc(F)cc3Cl)c(=O)n21)N1CC[C@H](F)C1` (single isomer, unassigned) [Example 572] was tested, and the IC50 was 1.4 nM.
Work on `O=C([C@@H]1CCCc2nn(Cc3ccnc(C(F)(F)F)c3F)c(=O)n21)N1CC2CC1C2` [Example 187, (5S)-5-(2-Azabicyclo[2.1.1]hex-2-ylcarbonyl)-2-{[3-fluoro-2-(trifluoromethyl)pyridin-4-yl]methyl}-5,6,7,8-tetrahydro[1,2,4]triazolo[4,3-a]pyridin-3(2H)-one] yielded an IC50 of 102 nM.
In the case of `O=C(C1CCc2nn(Cc3ccc(Cl)nc3)c(=O)n21)N1CC[C@H](F)C1` (mixture of isomers) [Example 163, (5RS)-2-[(6-Chloropyridin-3-yl)methyl]-5-{[(3S)-3-fluoropyrrolidin-1-yl]carbonyl}-2,5,6,7-tetrahydro-3H-pyrrolo[2,1-c][1,2,4]triazol-3-one], the IC50 is reported as 2.8 nM.
Compound `Cc1nc(Cn2nc3n(c2=O)C(C(=O)N2CCCC2)CCC3)no1` (racemic) [Example 12, (5RS)-2-[(5-Methyl-1,2,4-oxadiazol-3-yl)methyl]-5-(pyrrolidin-1-ylcarbonyl)-5,6,7,8-tetrahydro[1,2,4]triazolo[4,3-a]pyridin-3(2H)-one] has an IC50 of 99.5 nM.
Compound `O=C(C1CCCc2nn(Cc3cc(F)cc(C(F)(F)F)c3)c(=O)n21)N1CCCC1` (racemic) [Example 72] has an IC50 of 0.83 nM.
`O=C(C1CCc2nn(Cc3ccc(F)c(Cl)c3)c(=O)n21)N1CCC(F)(F)C1` (racemic) [Example 168, (5RS)-2-(3-Chloro-4-fluorobenzyl)-5-[(3,3-difluoropyrrolidin-1-yl)carbonyl]-2,5,6,7-tetrahydro-3H-pyrrolo[2,1-c][1,2,4]triazol-3-one] gave an IC50 of 4.1 nM.
For `O=C(C1CCCc2nn(Cc3ccc(OCC(F)(F)F)nc3)c(=O)n21)N1CCCC1` (racemic) [Example 153, (5RS)-5-(Pyrrolidin-1-ylcarbonyl)-2-{[6-(2,2,2-trifluoroethoxy)pyridin-3-yl]methyl}-5,6,7,8-tetrahydro[1,2,4]triazolo[4,3-a]pyridin-3(2H)-one], the IC50 was 36 nM.
Work on `Cc1cc(C)c(Cn2nc3n(c2=O)[C@H](C(=O)N2CCCC2)CCC3)cc1C` [Example 102, (5S)-5-(Pyrrolidin-1-ylcarbonyl)-2-(2,4,5-trimethylbenzyl)-5,6,7,8-tetrahydro[1,2,4]triazolo[4,3-a]pyridin-3(2H)-one] yielded an IC50 of 0.25 nM.
`CC(C)(C)c1ccc(Cn2nc3n(c2=O)C(C(=O)N2CCCC2)CCC3)cc1` (racemic) [Example 2, (5RS)-2-(4-tert-Butylbenzyl)-5-(pyrrolidin-1-ylcarbonyl)-5,6,7,8-tetrahydro[1,2,4]triazolo[4,3-a]pyridin-3(2H)-one] gave an IC50 of 15.4 nM.
In the case of `O=C(C1CC(C(F)(F)F)Cc2nn(Cc3ncc(F)cc3F)c(=O)n21)N1CC[C@H](F)C1` (mixture of isomers) [Example 569, (5RS,7RS)-2-[(3,5-Difluoropyridin-2-yl)methyl]-5-{[(3S)-3-fluoropyrrolidin-1-yl]carbonyl}-7-(trifluoromethyl)-5,6,7,8-tetrahydro[1,2,4]triazolo[4,3-a]pyridin-3(2H)-one], the IC50 is reported as 0.85 nM.
Compound `Cc1ccc(Cn2nc3n(c2=O)[C@H](C(=O)N2CCC[C@@H]2C)CCC3)cc1` [Example 127, 2-(4-Methylbenzyl)-(5S)-{[(2S)-2-methylpyrrolidin-1-yl]carbonyl}-5,6,7,8-tetrahydro[1,2,4]triazolo[4,3-a]pyridin-3(2H)-one] has an IC50 of 43.5 nM.
Work on `N#C[C@@H]1CCCN1C(=O)[C@@H]1CCCc2nn(Cc3ncc(Cl)cc3Cl)c(=O)n21` [Example 513, (2S)-1-({(5S)-2-[(3,5-Dichloropyridin-2-yl)methyl]-3-oxo-2,3,5,6,7,8-hexahydro[1,2,4]triazolo[4,3-a]pyridin-5-yl}carbonyl)pyrrolidine-2-carbonitrile] yielded an IC50 of 0.13 nM.
`O=C(C1C(C(F)(F)F)CCc2nn(Cc3ncc(Cl)cc3Cl)c(=O)n21)N1CCC(F)(F)C1` (racemic) [Example 289, (5RS,6RS)-2-[(3,5-Dichloropyridin-2-yl)methyl]-5-[(3,3-difluoropyrrolidin-1-yl)carbonyl]-6-(trifluoromethyl)-5,6,7,8-tetrahydro[1,2,4]triazolo[4,3-a]pyridin-3(2H)-one] gave an IC50 of 117 nM.
For `O=C([C@@H]1CCCc2nn(Cc3cncc(C(F)(F)F)c3)c(=O)n21)N1CC[C@H](F)C1` [Example 515, (5S)-5-{[(3S)-3-Fluoropyrrolidin-1-yl]carbonyl}-2-{[5-(trifluoromethyl)pyridin-3-yl]methyl}-5,6,7,8-tetrahydro[1,2,4]triazolo[4,3-a]pyridin-3(2H)-one], the IC50 was 0.59 nM.
`O=C([C@@H]1CCCc2nn(Cc3cccc(Cl)n3)c(=O)n21)N1CC(F)C1` [Example 384, (5S)-2-[(6-Chloropyridin-2-yl)methyl]-5-[(3-fluoroazetidin-1-yl)carbonyl]-5,6,7,8-tetrahydro[1,2,4]triazolo[4,3-a]pyridin-3(2H)-one] showed an IC50 of 11 nM.
For `O=C([C@@H]1CCC(O)c2nn(Cc3ccc(Cl)cn3)c(=O)n21)N1CC[C@H](F)C1` (mixture of isomers) [Example 547, (5S,8RS)-2-[(5-Chloropyridin-2-yl)methyl]-5-{[(3S)-3-fluoropyrrolidin-1-yl]carbonyl}-8-hydroxy-5,6,7,8-tetrahydro[1,2,4]triazolo[4,3-a]pyridin-3(2H)-one], the IC50 was 0.43 nM.
`O=C([C@@H]1CCCc2nn(Cc3ccnc(C(F)(F)F)c3F)c(=O)n21)N1CCC(F)(F)C1` [Example 482, (5S)-5-[(3,3-Difluoropyrrolidin-1-yl)carbonyl]-2-{[3-fluoro-2-(trifluoromethyl)pyridin-4-yl]methyl}-5,6,7,8-tetrahydro[1,2,4]triazolo[4,3-a]pyridin-3(2H)-one] gave an IC50 of 2.8 nM.
Work on `COc1ccc(Cn2nc3n(c2=O)C(C(=O)N2CCCC2)CCC3)cc1Cl` (racemic) [Example 46, (5RS)-2-(3-Chloro-4-methoxybenzyl)-5-(pyrrolidin-1-ylcarbonyl)-5,6,7,8-tetrahydro[1,2,4]triazolo[4,3-a]pyridin-3(2H)-one] yielded an IC50 of 0.95 nM.
In the case of `O=C(C1C(C(F)(F)F)CCc2nn(Cc3ccc(C(F)(F)F)nc3)c(=O)n21)N1CC(F)C1` (racemic) [Example 304, (5RS,6RS)-5-[(3-Fluoroazetidin-1-yl)carbonyl]-6-(trifluoromethyl)-2-{[6-(trifluoromethyl)pyridin-3-yl]methyl}-5,6,7,8-tetrahydro[1,2,4]triazolo[4,3-a]pyridin-3(2H)-one], the IC50 is reported as 35 nM.
`O=C(C1C(C(F)(F)F)CCc2nn(Cc3ncc(Cl)cc3Cl)c(=O)n21)N1C[C@@H](F)[C@@H](F)C1` (mixture of isomers) [Example 287, (5RS,6RS)-2-[(3,5-Dichloropyridin-2-yl)methyl]-5-{[(3R,4S)-3,4-difluoropyrrolidin-1-yl]carbonyl}-6-(trifluoromethyl)-5,6,7,8-tetrahydro[1,2,4]triazolo[4,3-a]pyridin-3(2H)-one] showed an IC50 of 23 nM.
`O=C([C@@H]1CCCc2nn(Cc3cccc(C(F)(F)F)c3)c(=O)n21)N1CCC(F)(F)C1` [Example 446, (5S)-5-[(3,3-Difluoropyrrolidin-1-yl)carbonyl]-2-[3-(trifluoromethyl)benzyl]-5,6,7,8-tetrahydro[1,2,4]triazolo[4,3-a]pyridin-3(2H)-one] gave an IC50 of 0.73 nM.
Compound `Cc1ccc(Cn2nc3n(c2=O)C(C(=O)N2CCCC2)CC(C(F)(F)F)C3)cc1` (single isomer, unassigned) [Example 226, (5RS,7RS)-2-(4-Methylbenzyl)-5-(pyrrolidin-1-ylcarbonyl)-7-(trifluoromethyl)-5,6,7,8-tetrahydro[1,2,4]triazolo[4,3-a]pyridin-3(2H)-one] has an IC50 of 3.6 nM.
`Cc1ccc(C2(Cn3nc4n(c3=O)[C@H](C(=O)N3CC[C@H](F)C3)CCC4)CC2)cc1` [Example 526, (5S)-5-{[(3S)-3-Fluoropyrrolidin-1-yl]carbonyl}-2-{[1-(4-methylphenyl)cyclopropyl]methyl}-5,6,7,8-tetrahydro[1,2,4]triazolo[4,3-a]pyridin-3(2H)-one] showed an IC50 of 0.38 nM.
`COc1ccc(Cn2nc3n(c2=O)[C@H](C(=O)N2CC(F)C2)CCC3)cn1` [Example 433, (5S)-5-[(3-Fluoroazetidin-1-yl)carbonyl]-2-[(6-methoxypyridin-3-yl)methyl]-5,6,7,8-tetrahydro[1,2,4]triazolo[4,3-a]pyridin-3(2H)-one] was tested, and the IC50 was 3.1 nM.
